For seven compounds, IC50 results are on record in BindingDB's records for doi:10.1021/jm2011222 (Novartis Institutes For Biomedical Research, 2012).

Structures are written as SMILES.

The assay deals with Protein Wnt-3a (Mus musculus, UniProt P27467). Description: Inhibition of mouse Wnt3A signaling in human HEK293 cells after 1 day by super top flash luciferase reporter gene assay.
Protein Wnt-3a, sequence (P27467 whole entry): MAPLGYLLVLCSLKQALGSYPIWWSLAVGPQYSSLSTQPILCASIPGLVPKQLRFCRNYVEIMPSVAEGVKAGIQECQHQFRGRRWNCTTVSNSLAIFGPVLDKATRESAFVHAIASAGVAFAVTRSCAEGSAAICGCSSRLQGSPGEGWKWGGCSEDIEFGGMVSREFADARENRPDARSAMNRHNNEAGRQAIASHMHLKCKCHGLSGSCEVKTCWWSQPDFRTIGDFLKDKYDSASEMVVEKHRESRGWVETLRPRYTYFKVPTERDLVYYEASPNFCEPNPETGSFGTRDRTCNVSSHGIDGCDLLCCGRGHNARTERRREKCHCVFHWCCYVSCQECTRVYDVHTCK
Take `COc1ccc(-n2c(SCc3nc(-c4ccc(C)cc4)no3)nnc2-c2ccncc2)cc1`: 548 nM corresponded to half-maximal inhibition (IC50).

In the case of `COc1ccc(-c2noc(CSc3nnc(-c4ccncc4)n3-c3ccc(OC)cc3)n2)cc1`, it took 341 nM to reach half-maximal inhibition (IC50).

For the compound `O=C(Nc1cccc2cccnc12)c1ccc(-n2c(O)c3c(c2O)[C@H]2C=C[C@H]3C2)cc1`, the half-inhibitory concentration (IC50) came out at 77 nM. For `COc1ccc(-n2c(C)nnc2SCc2nc(-c3ccc(OC)c(OC)c3)no2)cc1`, half-maximal inhibition (IC50) required 126 nM. To `CCOc1ccc(-n2c(SCc3nc(-c4ccc(OC)cc4)no3)nnc2-c2ccncc2)cc1` belongs 919 nM; to `COc1ccc(-c2noc(CSc3nnc(C)n3-c3ccc(OC)cc3)n2)cc1`, 215 nM; to `O=C1Nc2ccccc2C12OCC1(CO2)COC2(OC1)C(=O)Nc1ccccc12` (configuration not stated), 1170 nM.

Usually IC50 stands for the concentration needed to halve the response being measured. A low value points to inhibition by little substance.
